What was measured:
[1] = target: T1, human B1R receptor (Homo sapiens, UniProt P46663); experiment: Functional study on the bradykinin receptor 1 (B1R), FLIPR Ca2+ assay, hB1R cells; type: cell-based; conditions: CHO-K1, test substance 10 μM, agonist Lys-Des-Arg9-bradykinin 0.5 nM, % inhibition compared with the maximum achievable inhibition, read-out: B1R Antagonism, human [10 μM] % Inhibition
T1 construct: host or cells: CHO K1 cells (Chinese hamster ovary), stably transfected
T1 sequence (P46663 1-353): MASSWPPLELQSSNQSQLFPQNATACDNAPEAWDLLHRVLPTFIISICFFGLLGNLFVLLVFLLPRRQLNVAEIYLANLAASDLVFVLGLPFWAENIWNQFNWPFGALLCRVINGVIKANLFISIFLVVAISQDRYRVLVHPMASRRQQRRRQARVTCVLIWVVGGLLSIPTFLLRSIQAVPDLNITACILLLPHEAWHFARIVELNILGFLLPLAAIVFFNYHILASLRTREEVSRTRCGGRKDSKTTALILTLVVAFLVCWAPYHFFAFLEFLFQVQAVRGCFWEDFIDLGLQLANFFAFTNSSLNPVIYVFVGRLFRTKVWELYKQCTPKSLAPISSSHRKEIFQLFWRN
Method in brief: (§1)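 CHO K1 cells stably expressing human or rat B1R, Fluo-4-loaded; test compound 10 μM added first (activation % vs agonist), then after 10 min 0.5 nM Lys-Des-Arg9-bradykinin (human) or 100 nM Des-Arg9-bradykinin (rat). Ca2+ peak fluorescence by FLIPR; % inhibition relative to maximum achievable inhibition.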

[2] = target: T2, B1R receptor of the rat (Rattus norvegicus, UniProt P97583); experiment: Functional study on the bradykinin receptor 1 (B1R), FLIPR Ca2+ assay, rB1R cells; type: cell-based; conditions: CHO-K1, test substance 10 μM, agonist Des-Arg9-bradykinin 100 nM, % inhibition compared with the maximum achievable inhibition, read-out: B1R Antagonism, rat [10 μM] % Inhibition
T2 construct: host or cells: CHO K1 cells (Chinese hamster ovary), stably transfected
T2 sequence (P97583 1-337): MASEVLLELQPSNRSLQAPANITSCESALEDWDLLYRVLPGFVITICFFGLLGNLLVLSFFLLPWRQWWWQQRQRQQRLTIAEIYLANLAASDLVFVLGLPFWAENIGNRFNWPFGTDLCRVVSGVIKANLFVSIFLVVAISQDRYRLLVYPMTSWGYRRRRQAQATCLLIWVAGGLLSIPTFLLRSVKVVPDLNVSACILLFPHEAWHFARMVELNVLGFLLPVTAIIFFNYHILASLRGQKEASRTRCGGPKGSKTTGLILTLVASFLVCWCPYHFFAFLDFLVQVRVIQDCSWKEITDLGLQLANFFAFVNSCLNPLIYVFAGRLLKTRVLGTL
Method in brief: as §1

Row | inhibition at 10 µM [1] [%] | inhibition at 10 µM [2] [%] | SMILES
1 | 28.1 | 81.4 | COc1cc(C)c(S(=O)(=O)N2CCCCC2COCC(=O)Nc2ccc(N3CCCC3)cc2)c(C)c1 (centres unmarked) [Example 409, 2-((1-(4-methoxy-2,6-dimethylphenylsulfonyl)piperidin-2-yl)methoxy)-N-(4-(pyrrolidin-1-yl)phenyl)acetamide]
2 | 102 | 103 | COc1cc(C)c(S(=O)(=O)N2CCCCC2COCC(=O)N2CCN(CCC#N)CC2)c(C)c1 (centres unmarked) [Example 410, 3-(4-(2-((1-(4-methoxy-2,6-dimethylphenylsulfonyl)piperidin-2-yl)methoxy)acetyl)piperazin-1-yl)propanenitrile]
3 | 101 | 100 | COc1cc(C)c(S(=O)(=O)N2CCCCC2COCC(=O)NCCCN2CCN(Cc3ccccc3)CC2)c(C)c1 (centres unmarked) [Example 411, N-(3-(4-benzylpiperazin-1-yl)propyl)-2-((1-(4-methoxy-2,6-dimethylphenylsulfonyl)piperidin-2-yl)methoxy)acetamide]
4 | 101 | 103 | CCN1CCN(CCCNC(=O)COCC2CCCCN2S(=O)(=O)c2c(C)cc(OC)cc2C)CC1 (centres unmarked) [Example 412, N-(3-(4-ethylpiperazin-1-yl)propyl)-2-((1-(4-methoxy-2,6-dimethylphenylsulfonyl)piperidin-2-yl)methoxy)acetamide]
5 | 99.9 | 103 | COc1cc(C)c(S(=O)(=O)N2CCCCC2COCC(=O)NCCCN2CCCCC2)c(C)c1 (centres unmarked) [Example 413, 2-((1-(4-methoxy-2,6-dimethylphenylsulfonyl)piperidin-2-yl)methoxy)-N-(3-(piperidin-1-yl)propyl)acetamide]
6 | 101 | 100 | COc1cc(C)c(S(=O)(=O)N2CCCCC2COCC(=O)NCC2CCN(Cc3ccccc3)C2)c(C)c1 (centres unmarked) [Example 414, N-((1-benzylpyrrolidin-3-yl)methyl)-2-((1-(4-methoxy-2,6-dimethylphenylsulfonyl)piperidin-2-yl)methoxy)acetamide]
7 | 99.2 | 97.5 | COc1cc(C)c(S(=O)(=O)N2CCCCC2COCC(=O)NCC2CCCN(Cc3ccccc3)C2)c(C)c1 (centres unmarked) [Example 415, N-((1-benzylpiperidin-3-yl)methyl)-2-((1-(4-methoxy-2,6-dimethylphenylsulfonyl)piperidin-2-yl)methoxy)acetamide]
8 | 50.2 | 101 | COc1cc(C)c(S(=O)(=O)N2CCCCC2COCC(=O)NCCn2nccc2C)c(C)c1 (centres unmarked) [Example 416, 2-((1-(4-methoxy-2,6-dimethylphenylsulfonyl)piperidin-2-yl)methoxy)-N-(2-(5-methyl-1H-pyrazol-1-yl)ethyl)acetamide]
9 | 96.2 | 103 | COc1cc(C)c(S(=O)(=O)N2CCCCC2COCC(=O)Nc2ccc(CCc3nc4ccccc4n3C)cc2)c(C)c1 (centres unmarked) [Example 417, 2-((1-(4-methoxy-2,6-dimethylphenylsulfonyl)piperidin-2-yl)methoxy)-N-(4-(2-(1-methyl-1H-benzo[d]imidazol-2-yl)ethyl)phenyl)acetamide]
10 | 101 | 104 | COc1cc(C)c(S(=O)(=O)N2CCCCC2COCC(=O)Nc2cccc(CN3CCCCC3)c2)c(C)c1 (centres unmarked) [Example 418, 2-((1-(4-methoxy-2,6-dimethylphenylsulfonyl)piperidin-2-yl)methoxy)-N-(3-(piperidin-1-ylmethyl)phenyl)acetamide]
11 | 100 | 101 | COc1cc(C)c(S(=O)(=O)N2CCCCC2COCC(=O)Nc2ccc(CN3CCCCC3)cc2)c(C)c1 (centres unmarked) [Example 419, 2-((1-(4-methoxy-2,6-dimethylphenylsulfonyl)piperidin-2-yl)methoxy)-N-(4-(piperidin-1-ylmethyl)phenyl)acetamide]
12 | 100 | 92 | COc1cc(C)c(S(=O)(=O)N2CCCCC2COCC(=O)Nc2ccc(Cn3ccnc3)cc2)c(C)c1 (centres unmarked) [Example 420, N-(4-((1H-imidazol-1-yl)methyl)phenyl)-2-((1-(4-methoxy-2,6-dimethylphenylsulfonyl)piperidin-2-yl)methoxy)acetamide]
13 | 97.3 | 93.4 | COc1cc(C)c(S(=O)(=O)N2CCCCC2COCC(=O)Nc2ccc(CN3CCC(C)CC3)cc2)c(C)c1 (centres unmarked) [Example 421, 2-((1-(4-methoxy-2,6-dimethylphenylsulfonyl)piperidin-2-yl)methoxy)-N-(4-((4-methylpiperidin-1-yl)methyl)phenyl)acetamide]
14 | 48 | 98.6 | COc1ccc(S(=O)(=O)N2c3ccccc3CC2COCC(=O)NCC2CCCN(Cc3ccccc3)C2)cc1 (centres unmarked) [Example 422, N-((1-benzylpiperidin-3-yl)methyl)-2-((1-(4-methoxyphenylsulfonyl)indolin-2-yl)methoxy)acetamide]
15 | 58.7 | 80.1 | COc1ccc(S(=O)(=O)N2c3ccccc3CC2COCC(=O)Nc2cccc(CN3CCCCC3)c2)cc1 (centres unmarked) [Example 423, 2-((1-(4-methoxyphenylsulfonyl)indolin-2-yl)methoxy)-N-(3-(piperidin-1-ylmethyl)phenyl)acetamide]
16 | 35.1 | 97.6 | CCN(CCCNC(=O)COCC1CCCCN1S(=O)(=O)c1c(C)cc(OC)cc1C)c1ccccc1 (centres unmarked) [Example 424, N-(3-(ethyl(phenyl)amino)propyl)-2-((1-(4-methoxy-2,6-dimethylphenylsulfonyl)piperidin-2-yl)methoxy)acetamide]
17 | -0.97 | 98.8 | COc1cc(C)c(S(=O)(=O)N2CCCCC2COCC(=O)NCCc2cnccn2)c(C)c1 (centres unmarked) [Example 425, 2-((1-(4-methoxy-2,6-dimethylphenylsulfonyl)piperidin-2-yl)methoxy)-N-(2-(pyrazin-2-yl)ethyl)acetamide]
18 | -4.95 | 94.4 | COc1cc(C)c(S(=O)(=O)N2CCCCC2COCC(=O)NC(C)Cn2cccn2)c(C)c1 (centres unmarked) [Example 426, N-(1-(1H-pyrazol-1-yl)propan-2-yl)-2-((1-(4-methoxy-2,6-dimethylphenylsulfonyl)piperidin-2-yl)methoxy)acetamide]
19 | 102 | 98.8 | COc1cc(C)c(S(=O)(=O)N2CCCCC2COCC(=O)Nc2ccc(-n3ccnc3C)cc2)c(C)c1 (centres unmarked) [Example 427, 2-((1-(4-methoxy-2,6-dimethylphenylsulfonyl)piperidin-2-yl)methoxy)-N-(4-(2-methyl-1H-imidazol-1-yl)phenyl)acetamide]
20 | 23.8 | 102 | COc1cc(C)c(S(=O)(=O)N2CCCCC2COCC(=O)NCc2ccccc2N2CCCCC2)c(C)c1 (centres unmarked) [Example 428, 2-((1-(4-methoxy-2,6-dimethylphenylsulfonyl)piperidin-2-yl)methoxy)-N-(2-(piperidin-1-yl)benzyl)acetamide]
21 | 14.3 | 99.5 | COc1cc(C)c(S(=O)(=O)N2CCCCC2COCC(=O)Nc2cccc(N3CCCCC3)c2)c(C)c1 (centres unmarked) [Example 429, 2-((1-(4-methoxy-2,6-dimethylphenylsulfonyl)piperidin-2-yl)methoxy)-N-(3-(piperidin-1-yl)phenyl)acetamide]
22 | 38.6 | 101 | COc1cc(C)c(S(=O)(=O)N2CCCCC2COCC(=O)NCc2cccc(N3CCCCC3)c2)c(C)c1 (centres unmarked) [Example 430, 2-((1-(4-methoxy-2,6-dimethylphenylsulfonyl)piperidin-2-yl)methoxy)-N-(3-(piperidin-1-yl)benzyl)acetamide]
23 | 28.4 | 96.2 | COc1cc(C)c(S(=O)(=O)N2CCCCC2COCC(=O)Nc2ccccc2N2CCN(C)CC2)c(C)c1 (centres unmarked) [Example 431, 2-((1-(4-methoxy-2,6-dimethylphenylsulfonyl)piperidin-2-yl)methoxy)-N-(2-(4-methylpiperazin-1-yl)phenyl)acetamide]
24 | 94 | 100 | COc1cc(C)c(S(=O)(=O)N2CCCCC2COCC(=O)NCc2ccccc2N2CCN(C)CC2)c(C)c1 (centres unmarked) [Example 432, 2-((1-(4-methoxy-2,6-dimethylphenylsulfonyl)piperidin-2-yl)methoxy)-N-(2-(4-methylpiperazin-1-yl)benzyl)acetamide]
25 | 103 | 100 | COc1cc(C)c(S(=O)(=O)N2CCCCC2COCC(=O)NCc2cccc(N3CCN(C)CC3)c2)c(C)c1 (centres unmarked) [Example 433, 2-((1-(4-methoxy-2,6-dimethylphenylsulfonyl)piperidin-2-yl)methoxy)-N-(3-(4-methylpiperazin-1-yl)benzyl)acetamide]

— patent US8435978B2, “Substituted sulfonamide compounds” (Gruenenthal GmbH, priority 2006, dated 2013)
